Results from paper PMC11672653 (Antibiotics, 2024).

Assays:
[1] = test system: polyclonal antibodies against ERM (anti-ERM antibody); assay: Competitive indirect ELISA with anti-eremomycin antibody and heterologous VCM coating conjugates; format: binding, rabbit; details: for IC50: cross-reactivity study, eremomycin antibody-based ELISA for vancomycin (coating BSA-VCM×50f); for CR (cross-reactivity): relative to vancomycin = 100%, eremomycin antibody-based ELISA (coating BSA-VCM×50f)
Description: The coating conjugates were adsorbed in 96-well plates from solutions (0.05–1.5 µg/mL) in 0.1 mL CBB. After overnight incubation at 4 °C, the plates were washed three times with PBST to remove unbound reagent. Serial dilutions of antibodies in 0.1 mL 1% BSA-PBST were combined with standard (0, 0.01–10,000 ng/mL) in 0.1 mL PBST and incubated for 1 h at 25 °C. Following the washing procedure, the bound antibody was then detected using the GAR-HRP (1 h, 37 °C) in 0.1 mL of 1% BSA-PBS and subsequently washed out. The enzymatic activity was determined by the addition of TMB substrate (0.1 mL) to the wells, followed by the addition of 0.1 mL of 1 M sulfuric acid 30 min later, which terminated the reaction. The absorbance of the colored reaction product was read at 450 nm using a LisaScan spectrophotometer (Erba Mannheim, Karásek, Czech Republic).
The maximum optical output signal (100%) at zero concentration of VCM was referred to as B0. The decrease in the signal caused by each antibiotic concentration was expressed as the B/B0 ratio and was used to construct standard curves using a four-parameter logistic fitting in GraphPad Prism 8.0 software. The VCM half-inhibitory concentration (IC50) served as the sensitivity value for the comparison of assay variants and the cross-reactivity of analogs.
The checkerboard titration was employed to identify the optimal ratio of coating antigen to antibody, with concentrations taken in a serial fashion.

[2] = HPLC-MS/MS re-analysis of frozen VCM-spiked human serum (accuracy, stability); details: one week, several freeze/thaw cycles
Description: The same samples spiked with VCM were frozen and analyzed by HPLC-MS/MS one week later.
Frozen serum samples were thawed prior to analysis and assayed for VCM concentration by ELISA and LC-MS/MS in parallel. The procedure and sample preparation for LC-MS/MS analysis are detailed in the Supplementary File.
An aliquot (10 μL) of the analyte working solution and an aliquot (10 μL) of the IS working solution (1000 ng/ml) were added to an aliquot (100 μL) of serum. After vortexing the sample, 400 μL of cooled (4 °C) water contacting 15% trifluoroacetic acid was added for precipitation, and the sample was mixed well and centrifuged (2750 × g, 15 min, 4 °C). An aliquot (20 μL) of the supernatant was transferred to a test plate containing 230 μL ACN/H2O (10/90) solution for further UPLC-MS/MS analysis (Table S2). Calibration was constructed as a function of VCM concentrations versus corresponding peak area values (Figure S2).
Table S2. Calibration of spiked human serum samples using HPLC-MS/MS (n=4) […]
Figure S2. Calibration of spiked human serum samples using HPLC-MS/MS
Table S3. Recovery from spiked human serum samples using HPLC-MS/MS (N=6) […]
(1 picture or pasted object on this page, not shown here)

[3] = cited from earlier work

Row | Compound | IC50 [1] | CR (cross-reactivity) [1] | stability in human serum [2] | recommended Ctrough range [3] | CR (cross-reactivity) ([1]; listed as teicoplanin)
1 | NCC[C@H](O)C(=O)N[C@@H]1C[C@H](N)[C@@H](O[C@H]2O[C@H](CN)[C@@H](O)[C@H](O)[C@H]2O)[C@H](O)[C@H]1O[C@H]1O[C@H](CO)[C@@H](O)[C@H](N)[C@H]1O [Amikacin] | >10,000 ng/mL | <0.3% |  |  | 
2 | CC[C@H]1OC(=O)[C@H](C)[C@@H](O[C@H]2C[C@@](C)(OC)[C@@H](O)[C@H](C)O2)[C@H](C)[C@@H](O[C@@H]2O[C@H](C)C[C@H](N(C)C)[C@H]2O)[C@](C)(O)C[C@@H](C)CN(C)[C@H](C)[C@@H](O)[C@]1(C)O [Azithromycin] | >10,000 ng/mL | <0.3% |  |  | 
3 | CNC(C)C1CCC(N)C(OC2C(N)CC(N)C(OC3OCC(C)(O)C(NC)C3O)C2O)O1 (centres unmarked) [Gentamicin] | >10,000 ng/mL | <0.3% |  |  | 
4 | CC(=O)NC[C@H]1CN(c2ccc(N3CCOCC3)c(F)c2)C(=O)O1 [Linezolid] | >10,000 ng/mL | <0.3% |  |  | 
5 | CN[C@H](CC(C)C)C(=O)N[C@H]1C(=O)N[C@@H](CC(N)=O)C(=O)N[C@H]2C(=O)N[C@H]3C(=O)N[C@H](C(=O)N[C@H](C(=O)O)c4cc(O)cc(O)c4-c4cc3ccc4O)[C@H](O)c3ccc(c(Cl)c3)Oc3cc2cc(c3O[C@@H]2O[C@H](CO)[C@@H](O)[C@H](O)[C@H]2O[C@H]2C[C@](C)(N)[C@H](O)[C@H](C)O2)Oc2ccc(cc2Cl)[C@H]1O [Vancomycin] |  |  | stability of the analyte in human serum | 15000 to 20000 ng/mL | 
6 | Colistin | >10,000 ng/mL | <0.3% |  |  | 
7 | Eremomycin | 33.0 ng/mL | 104% |  |  | 

Continued, in another order:

Row | IC50 [1] | Compound | CR (cross-reactivity) [1] | stability in human serum [2] | recommended Ctrough range [3] | CR (cross-reactivity) ([1]; listed as teicoplanin)
8 | >10,000 ng/mL | C[C@@H](O)[C@H]1C(=O)N2C(C(=O)O)=C(S[C@@H]3CN[C@H](C(=O)N(C)C)C3)[C@H](C)[C@H]12 [Meropenem] | <0.3% |  |  | 
9 | >10,000 ng/mL | CN(C)c1cc(NC(=O)CNC(C)(C)C)c(O)c2c1C[C@H]1C[C@H]3[C@H](N(C)C)C(O)=C(C(N)=O)C(=O)[C@@]3(O)C(O)=C1C2=O [Tigecycline] | <0.3% |  |  | 
10 | >10,000 ng/mL | Polymyxin B | <0.3% |  |  | 
11 | >10,000 ng/mL | Teicoplanin | <0.3% |  |  | < 0.3%
